Oligonucleotides are written 5' to 3', each unit as a sugar letter and its base; * is a phosphorothioate linkage, no mark a phosphodiester; rarer units and linkages stand in square brackets, end groups in braces. Plain capitals give the bases only. Oligonucleotides are given in HELM: sugar(base)linkage, 5' to 3'; d 2'-deoxyribose, r ribose, m 2'-O-methylribose, p phosphate. ss, as = sense and antisense strand; d = 2'-deoxy (DNA); r = 2'-OH (RNA)
Molecular target: P2RX3
Experiment: reporter assay of Huesken 2005
Conditions: siRNA
Further: test concentration or dose not given here.

Compared with “sense rUrCrCrUrCrArCrUrGrGrCrCrGrCrUrGrCrGrUdTdT / antisense rArCrGrCrArGrCrGrGrCrCrArGrUrGrArGrGrAdTdC”, “sense rUrCrCrUrGrCrUrCrArArCrUrUrCrCrUrCrArAdTdT / antisense rUrUrGrArGrGrArArGrUrUrGrArGrCrArGrGrAdTdG” is higher in normalised inhibition (eCFP-eYFP dual reporter): 16.4% for the first, 90.3% for the second.

Compared with “sense rUrCrGrGrCrUrGrGrGrUrGrUrGrCrGrArCrUrUdTdT / antisense rArArGrUrCrGrCrArCrArCrCrCrArGrCrCrGrAdTdC”, “sense rUrCrGrGrUrCrUrUrUrGrUrCrArUrCrArUrCrAdTdT / antisense rUrGrArUrGrArUrGrArCrArArArGrArCrCrGrAdGdG” is lower in normalised inhibition (eCFP-eYFP dual reporter): 77.1% for the first, 72.8% for the second.

First: sense rUrCrUrUrGrCrGrGrGrUrArGrGrGrGrArCrGrUdTdT / antisense rArCrGrUrCrCrCrCrUrArCrCrCrGrCrArArGrAdTdG
Second: sense rUrGrArCrArGrCrCrArGrGrGrArCrArUrGrArAdTdT / antisense rUrUrCrArUrGrUrCrCrCrUrGrGrCrUrGrUrCrAdGdG
The normalised inhibition (eCFP-eYFP dual reporter) of the first is lower: 75.9% for the first, 90.5% for the second.

First: sense rUrGrCrArUrCrCrCrCrArArArUrArCrUrCrCrUdTdT / antisense rArGrGrArGrUrArUrUrUrGrGrGrGrArUrGrCrAdCdT
Second: sense rUrGrCrCrGrCrUrUrCrCrArCrCrCrGrGrArCrAdTdT / antisense rUrGrUrCrCrGrGrGrUrGrGrArArGrCrGrGrCrAdGdG
The normalised inhibition (eCFP-eYFP dual reporter) of the first is lower: 56.3% for the first, 93.7% for the second.

First: sense rUrGrGrUrGrCrCrCrCrArCrGrGrArGrGrUrGrGdTdT / antisense rCrCrArCrCrUrCrCrGrUrGrGrGrGrCrArCrCrAdGdC
Second: sense rUrGrUrCrUrGrArUrUrArCrGrUrGrArCrGrCrCdTdT / antisense rGrGrCrGrUrCrArCrGrUrArArUrCrArGrArCrAdCdA
The normalised inhibition (eCFP-eYFP dual reporter) of the first is lower: 13.5% for the first, 43.1% for the second.

Going from “sense rUrUrArArGrArUrCrGrGrCrUrGrGrGrUrGrUrGdTdT / antisense rCrArCrArCrCrCrArGrCrCrGrArUrCrUrUrArAdTdG” to “sense rUrUrCrArGrCrUrUrCrUrGrArUrCrArUrCrUrCdTdT / antisense rGrArGrArUrGrArUrCrArGrArArGrCrUrGrArAdCdT”, the normalised inhibition (eCFP-eYFP dual reporter) falls from 55.4% to 46.8%.

First: sense rUrUrCrUrGrCrCrCrArGrArGrArGrUrGrArGrGdTdT / antisense rCrCrUrCrArCrUrCrUrCrUrGrGrGrCrArGrArAdTdC
Second: sense rUrUrGrCrGrGrGrGrCrArGrGrArUrUrUrUrGrCdTdT / antisense rGrCrArArArArUrCrCrUrGrCrCrCrCrGrCrArAdAdC
The normalised inhibition (eCFP-eYFP dual reporter) of the first is higher: 44.3% for the first, 33.4% for the second.

Compared with “sense rUrUrGrUrUrArCrUrGrArArArArUrCrArGrArUdTdT / antisense rArUrCrUrGrArUrUrUrUrCrArGrUrArArCrArAdTdC”, “sense rUrUrUrCrUrGrCrCrCrCrArUrCrUrUrGrCrGrGdTdT / antisense rCrCrGrCrArArGrArUrGrGrGrGrCrArGrArArAdGdG” is lower in normalised inhibition (eCFP-eYFP dual reporter): 54.1% for the first, 35.2% for the second.

Substance “sense rUrUrUrGrCrCrArArArCrUrGrGrCrGrCrGrCrAdTdT / antisense rUrGrCrGrCrGrCrCrArGrUrUrUrGrGrCrArArAdAdT” has a normalised inhibition (eCFP-eYFP dual reporter) of 37.3%.

Molecular target: UBE2K
Experiment: reporter assay of Huesken 2005
Conditions: siRNA

Going from “RNA1{r(A)p.r(A)p.r(A)p.r(A)p.r(U)p.r(A)p.r(U)p.r(G)p.r(G)p.r(C)p.r(A)p.r(U)p.r(C)p.r(C)p.r(U)p.r(A)p.r(A)p.r(U)p.r(A)p.d(T)p.d(T)}|RNA2{r(U)p.r(A)p.r(U)p.r(U)p.r(A)p.r(G)p.r(G)p.r(A)p.r(U)p.r(G)p.r(C)p.r(C)p.r(A)p.r(U)p.r(A)p.r(U)p.r(U)p.r(U)p.r(U)p.d(A)p.d(G)}$$$RNA1{StrandType:ss}|RNA2{StrandType:as}$” to “RNA1{r(A)p.r(A)p.r(A)p.r(U)p.r(A)p.r(G)p.r(C)p.r(A)p.r(G)p.r(G)p.r(A)p.r(C)p.r(C)p.r(U)p.r(C)p.r(C)p.r(A)p.r(G)p.r(A)p.d(T)p.d(T)}|RNA2{r(U)p.r(C)p.r(U)p.r(G)p.r(G)p.r(A)p.r(G)p.r(G)p.r(U)p.r(C)p.r(C)p.r(U)p.r(G)p.r(C)p.r(U)p.r(A)p.r(U)p.r(U)p.r(U)p.d(C)p.d(T)}$$$RNA1{StrandType:ss}|RNA2{StrandType:as}$”, the normalised inhibition (eCFP-eYFP dual reporter) falls from 67.3% to 65.4%.

Compared with “RNA1{r(A)p.r(A)p.r(A)p.r(U)p.r(C)p.r(C)p.r(C)p.r(G)p.r(A)p.r(A)p.r(A)p.r(U)p.r(G)p.r(U)p.r(U)p.r(C)p.r(A)p.r(A)p.r(A)p.d(T)p.d(T)}|RNA2{r(U)p.r(U)p.r(U)p.r(G)p.r(A)p.r(A)p.r(C)p.r(A)p.r(U)p.r(U)p.r(U)p.r(C)p.r(G)p.r(G)p.r(G)p.r(A)p.r(U)p.r(U)p.r(U)p.d(T)p.d(G)}$$$RNA1{StrandType:ss}|RNA2{StrandType:as}$”, “RNA1{r(A)p.r(A)p.r(G)p.r(G)p.r(A)p.r(G)p.r(G)p.r(A)p.r(A)p.r(G)p.r(A)p.r(U)p.r(A)p.r(C)p.r(C)p.r(A)p.r(A)p.r(C)p.r(U)p.d(T)p.d(T)}|RNA2{r(A)p.r(G)p.r(U)p.r(U)p.r(G)p.r(G)p.r(U)p.r(A)p.r(U)p.r(C)p.r(U)p.r(U)p.r(C)p.r(C)p.r(U)p.r(C)p.r(C)p.r(U)p.r(U)p.d(C)p.d(A)}$$$RNA1{StrandType:ss}|RNA2{StrandType:as}$” is lower in normalised inhibition (eCFP-eYFP dual reporter): 73.8% for the first, 68.1% for the second.

Going from “RNA1{r(A)p.r(A)p.r(G)p.r(U)p.r(A)p.r(G)p.r(A)p.r(U)p.r(C)p.r(U)p.r(U)p.r(G)p.r(U)p.r(A)p.r(G)p.r(A)p.r(U)p.r(G)p.r(A)p.d(T)p.d(T)}|RNA2{r(U)p.r(C)p.r(A)p.r(U)p.r(C)p.r(U)p.r(A)p.r(C)p.r(A)p.r(A)p.r(G)p.r(A)p.r(U)p.r(C)p.r(U)p.r(A)p.r(C)p.r(U)p.r(U)p.d(T)p.d(A)}$$$RNA1{StrandType:ss}|RNA2{StrandType:as}$” to “RNA1{r(A)p.r(A)p.r(U)p.r(A)p.r(G)p.r(C)p.r(A)p.r(G)p.r(G)p.r(A)p.r(C)p.r(C)p.r(U)p.r(C)p.r(C)p.r(A)p.r(G)p.r(A)p.r(C)p.d(T)p.d(T)}|RNA2{r(G)p.r(U)p.r(C)p.r(U)p.r(G)p.r(G)p.r(A)p.r(G)p.r(G)p.r(U)p.r(C)p.r(C)p.r(U)p.r(G)p.r(C)p.r(U)p.r(A)p.r(U)p.r(U)p.d(T)p.d(C)}$$$RNA1{StrandType:ss}|RNA2{StrandType:as}$”, the normalised inhibition (eCFP-eYFP dual reporter) falls from 88.9% to 56.1%.

Going from “RNA1{r(A)p.r(C)p.r(A)p.r(G)p.r(G)p.r(A)p.r(U)p.r(G)p.r(C)p.r(U)p.r(G)p.r(U)p.r(A)p.r(G)p.r(U)p.r(A)p.r(G)p.r(C)p.r(A)p.d(T)p.d(T)}|RNA2{r(U)p.r(G)p.r(C)p.r(U)p.r(A)p.r(C)p.r(U)p.r(A)p.r(C)p.r(A)p.r(G)p.r(C)p.r(A)p.r(U)p.r(C)p.r(C)p.r(U)p.r(G)p.r(U)p.d(G)p.d(G)}$$$RNA1{StrandType:ss}|RNA2{StrandType:as}$” to “RNA1{r(A)p.r(C)p.r(U)p.r(A)p.r(A)p.r(A)p.r(A)p.r(U)p.r(A)p.r(U)p.r(G)p.r(G)p.r(C)p.r(A)p.r(U)p.r(C)p.r(C)p.r(U)p.r(A)p.d(T)p.d(T)}|RNA2{r(U)p.r(A)p.r(G)p.r(G)p.r(A)p.r(U)p.r(G)p.r(C)p.r(C)p.r(A)p.r(U)p.r(A)p.r(U)p.r(U)p.r(U)p.r(U)p.r(A)p.r(G)p.r(U)p.d(G)p.d(A)}$$$RNA1{StrandType:ss}|RNA2{StrandType:as}$”, the normalised inhibition (eCFP-eYFP dual reporter) falls from 89.9% to 76%.

First: RNA1{r(A)p.r(C)p.r(U)p.r(A)p.r(U)p.r(U)p.r(G)p.r(G)p.r(C)p.r(A)p.r(G)p.r(C)p.r(U)p.r(G)p.r(C)p.r(A)p.r(G)p.r(A)p.r(G)p.d(T)p.d(T)}|RNA2{r(C)p.r(U)p.r(C)p.r(U)p.r(G)p.r(C)p.r(A)p.r(G)p.r(C)p.r(U)p.r(G)p.r(C)p.r(C)p.r(A)p.r(A)p.r(U)p.r(A)p.r(G)p.r(U)p.d(G)p.d(C)}$$$RNA1{StrandType:ss}|RNA2{StrandType:as}$
Second: RNA1{r(A)p.r(G)p.r(A)p.r(A)p.r(A)p.r(C)p.r(A)p.r(U)p.r(A)p.r(C)p.r(C)p.r(C)p.r(A)p.r(U)p.r(U)p.r(U)p.r(A)p.r(A)p.r(U)p.d(T)p.d(T)}|RNA2{r(A)p.r(U)p.r(U)p.r(A)p.r(A)p.r(A)p.r(U)p.r(G)p.r(G)p.r(G)p.r(U)p.r(A)p.r(U)p.r(G)p.r(U)p.r(U)p.r(U)p.r(C)p.r(U)p.d(G)p.d(G)}$$$RNA1{StrandType:ss}|RNA2{StrandType:as}$
The normalised inhibition (eCFP-eYFP dual reporter) of the first is lower: 62% for the first, 72.3% for the second.

Going from “RNA1{r(A)p.r(G)p.r(A)p.r(C)p.r(A)p.r(C)p.r(A)p.r(C)p.r(C)p.r(A)p.r(U)p.r(A)p.r(U)p.r(G)p.r(A)p.r(A)p.r(G)p.r(G)p.r(A)p.d(T)p.d(T)}|RNA2{r(U)p.r(C)p.r(C)p.r(U)p.r(U)p.r(C)p.r(A)p.r(U)p.r(A)p.r(U)p.r(G)p.r(G)p.r(U)p.r(G)p.r(U)p.r(G)p.r(U)p.r(C)p.r(U)p.d(G)p.d(G)}$$$RNA1{StrandType:ss}|RNA2{StrandType:as}$” to “RNA1{r(A)p.r(G)p.r(A)p.r(U)p.r(G)p.r(A)p.r(U)p.r(C)p.r(C)p.r(A)p.r(C)p.r(A)p.r(G)p.r(G)p.r(A)p.r(U)p.r(G)p.r(C)p.r(U)p.d(T)p.d(T)}|RNA2{r(A)p.r(G)p.r(C)p.r(A)p.r(U)p.r(C)p.r(C)p.r(U)p.r(G)p.r(U)p.r(G)p.r(G)p.r(A)p.r(U)p.r(C)p.r(A)p.r(U)p.r(C)p.r(U)p.d(G)p.d(G)}$$$RNA1{StrandType:ss}|RNA2{StrandType:as}$”, the normalised inhibition (eCFP-eYFP dual reporter) falls from 81% to 68%.

“RNA1{r(A)p.r(G)p.r(C)p.r(A)p.r(A)p.r(A)p.r(U)p.r(C)p.r(A)p.r(G)p.r(U)p.r(A)p.r(C)p.r(A)p.r(A)p.r(A)p.r(C)p.r(A)p.r(A)p.d(T)p.d(T)}|RNA2{r(U)p.r(U)p.r(G)p.r(U)p.r(U)p.r(U)p.r(G)p.r(U)p.r(A)p.r(C)p.r(U)p.r(G)p.r(A)p.r(U)p.r(U)p.r(U)p.r(G)p.r(C)p.r(U)p.d(A)p.d(C)}$$$RNA1{StrandType:ss}|RNA2{StrandType:as}$” showed a normalised inhibition (eCFP-eYFP dual reporter) of 77.8%.
